From PubChem BioAssay (NCI) come the findings set out here.

Some test systems named below: SF-539 CNS; 786-0 renal; MCF7 breast; LOX IMVI melanoma; HCT-15 colon; NCI-H460 lung; OVCAR-5 ovarian; UACC-257 melanoma; CAKI-1 renal; DU-145 prostate; HL-60(TB) leukemia; RPMI-8226 leukemia; MDA-MB-231 breast; NCI-H522 lung; EKVX NSCLC; HCC-2998 colon; SK-MEL-2 melanoma; UACC-62 melanoma.
Holding throughout (test): NCI tumour cell line growth inhibition, 48 h

The structures appear in SMILES notation.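 Cultured in 96-well plates, cells were exposed to test compound for 48 hours across five concentrations. The concentration for full growth arrest is given as TGI.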

For `O=C1NC(=S)NC1C(Cc1ccccc1)c1ccco1` (centres undefined), the TGI in the assay on SF-539 CNS, with 786-0 renal, with MCF7 breast, in the assay with LOX IMVI melanoma, with HCT-15 colon and with NCI-H460 lung was greater than 100 µM in each case. For the same compound, the TGI with OVCAR-5 ovarian, in the assay on UACC-257 melanoma, in the assay on CAKI-1 renal, with DU-145 prostate, with HL-60(TB) leukemia and in the assay on RPMI-8226 leukemia was greater than 100 µM throughout. Also, the TGI in the assay on MDA-MB-231 breast, in the assay on NCI-H522 lung, with EKVX NSCLC and with HCC-2998 colon was greater than 100 µM each time.

`CCCCN(CCCC)C1(c2cc3ccccc3s2)CCCCC1`: the TGI in the assay with SF-539 CNS was found to be 34.9 µM; in the assay with 786-0 renal, 27.3 µM; in the assay with MCF7 breast, 32.1 µM; in the assay on LOX IMVI melanoma it was 28.3 µM; with HCT-15 colon it was 30.8 µM; in the assay on NCI-H460 lung, 27.9 µM. The TGI is 32.9 µM with OVCAR-5 ovarian; 34 µM with UACC-257 melanoma; 32.8 µM with CAKI-1 renal; 30 µM in the assay with DU-145 prostate; 34.3 µM in the assay on HL-60(TB) leukemia; 34.5 µM in the assay on SK-MEL-2 melanoma. For the same compound, the TGI came to 31.1 µM in the assay with UACC-62 melanoma; 30.2 µM in the assay with MDA-MB-231 breast; 25.6 µM in the assay on NCI-H522 lung; 36.6 µM in the assay on EKVX NSCLC; 27.4 µM in the assay with HCC-2998 colon.

For `CN1CCN(Cn2nc(-c3ccccc3)n(/N=C/c3ccc(-c4ccc(Cl)cc4Cl)o3)c2=S)CC1`, the TGI was 41 µM with SF-539 CNS; 33.9 µM with 786-0 renal; 38.6 µM with MCF7 breast; 46.7 µM with LOX IMVI melanoma; 21.2 µM with HCT-15 colon; greater than 100 µM with NCI-H460 lung. Besides, the TGI is 48 µM in the assay on OVCAR-5 ovarian; 47.5 µM in the assay on UACC-257 melanoma; 21.9 µM with CAKI-1 renal; 21 µM in the assay with DU-145 prostate; 80.3 µM in the assay on HL-60(TB) leukemia; 75.6 µM in the assay on RPMI-8226 leukemia. For the same compound, the TGI with SK-MEL-2 melanoma was 44.1 µM; with MDA-MB-231 breast, 29.9 µM; with NCI-H522 lung it was greater than 100 µM; with EKVX NSCLC, greater than 100 µM; in the assay with HCC-2998 colon it was 26.5 µM.

In the case of `O=C(CC(O)(C(F)(F)Cl)C(F)(F)Cl)CC(O)(C(F)(F)Cl)C(F)(F)Cl`, the TGI in the assay with SF-539 CNS, in the assay on 786-0 renal, in the assay with MCF7 breast, in the assay on LOX IMVI melanoma, in the assay on HCT-15 colon and in the assay on NCI-H460 lung was greater than 10 µM each time. For the same compound, the TGI in the assay on UACC-257 melanoma was 6.17 µM; in the assay on CAKI-1 renal it was 6.62 µM; with DU-145 prostate, greater than 10 µM; in the assay with HL-60(TB) leukemia it was 4.94 µM; with RPMI-8226 leukemia, 4.84 µM; with SK-MEL-2 melanoma it was 3.54 µM. The TGI was greater than 10 µM with UACC-62 melanoma; 5.29 µM in the assay with MDA-MB-231 breast; greater than 10 µM in the assay on NCI-H522 lung; 8.02 µM in the assay with EKVX NSCLC; greater than 10 µM in the assay with HCC-2998 colon.

As to `CO[C@@H]1C[C@H]2[C@@H]3CC[C@H]([C@@H](C)COC(C)=O)[C@@]3(C)CC[C@@H]2[C@@]2(C)CC[C@H]3C[C@]312`, the TGI was found to be 37.3 µM in the assay with SF-539 CNS; 30.8 µM in the assay on 786-0 renal; 23.6 µM with MCF7 breast; 23.6 µM in the assay on LOX IMVI melanoma; 27 µM with HCT-15 colon; 23.4 µM in the assay on NCI-H460 lung. Further, the TGI in the assay with OVCAR-5 ovarian was 23.6 µM; in the assay with UACC-257 melanoma it was 24.4 µM; with CAKI-1 renal it was 21.4 µM; with DU-145 prostate, 27.8 µM; in the assay on HL-60(TB) leukemia it was 19.1 µM; in the assay on RPMI-8226 leukemia, 29.9 µM. Further, the TGI in the assay with MDA-MB-231 breast is 24.3 µM; in the assay with NCI-H522 lung it was 33.2 µM; in the assay with EKVX NSCLC it was 28 µM; in the assay on HCC-2998 colon, 28.6 µM.

`COc1ccc(/C=C2\N=C(N3CCOCC3)NC2=O)cc1`: the TGI in the assay with SF-539 CNS, in the assay with 786-0 renal, in the assay with MCF7 breast, in the assay with LOX IMVI melanoma, with HCT-15 colon and in the assay on OVCAR-5 ovarian was greater than 100 µM each time. The TGI with UACC-257 melanoma, with CAKI-1 renal, in the assay on DU-145 prostate, in the assay with HL-60(TB) leukemia, in the assay on RPMI-8226 leukemia and with SK-MEL-2 melanoma was greater than 100 µM throughout. The TGI in the assay on UACC-62 melanoma, with MDA-MB-231 breast, with NCI-H522 lung, in the assay with EKVX NSCLC and in the assay with HCC-2998 colon was greater than 100 µM in each case.

As for `CC(C)C1=CC23CCC4C(C)(C(=O)O)CCCC4(C)C2CC1C1C(=O)N(c2ccc(N4C(=O)C5C6CC7C8(C)CCCC(C)(C(=O)O)C8CCC7(C=C6C(C)C)C5C4=O)cc2)C(=O)C13` (centres undefined), the TGI in the assay on SF-539 CNS is 22.4 µM; with 786-0 renal it was greater than 100 µM; with MCF7 breast it was 13.5 µM; with HCT-15 colon it was 27.2 µM; in the assay on OVCAR-5 ovarian it was 22 µM; with DU-145 prostate, 16.6 µM. For the same compound, the TGI in the assay with HL-60(TB) leukemia was 17.2 µM; in the assay with RPMI-8226 leukemia, 80.3 µM; in the assay with SK-MEL-2 melanoma it was 26.7 µM; with MDA-MB-231 breast it was 21.5 µM; in the assay on NCI-H522 lung it was 17 µM; in the assay with EKVX NSCLC, 18.7 µM. This compound also had a TGI with HCC-2998 colon of 16.4 µM.

As to `C=CC(Br)(CBr)CCC1OC1(C)C` (centres undefined), the TGI worked out at 33.9 µM in the assay on SF-539 CNS; 29.6 µM with 786-0 renal; 29.9 µM with MCF7 breast; 17.8 µM in the assay on LOX IMVI melanoma; 28.3 µM in the assay with NCI-H460 lung; 33.3 µM with OVCAR-5 ovarian. Further, the TGI is 27.7 µM in the assay on UACC-257 melanoma; 36.4 µM with CAKI-1 renal; 59.8 µM in the assay with DU-145 prostate; greater than 100 µM in the assay on HL-60(TB) leukemia; 82 µM in the assay on RPMI-8226 leukemia; 30.6 µM in the assay on SK-MEL-2 melanoma. In addition, the TGI in the assay with MDA-MB-231 breast stood at 24.6 µM; in the assay on NCI-H522 lung, 34.1 µM; with EKVX NSCLC, 38.5 µM; in the assay with HCC-2998 colon, 33.1 µM.
